Measurements from US7141383B2, “EDG8 receptor, its preparation and use” (Sanofi-Aventis Deutschland GmbH, priority 2000, dated 2006).

Experiments:
human EDG8 [1] = target: T1, human EDG8 (Homo sapiens, UniProt Q9H228); assay: FLIPR intracellular Ca2+ mobilization in CHO cells transiently transfected with EDG8; type: cell-based; design: The 1197 bp PCR product was cloned into the pCDNA3.1(+) mammalian expression vector; expressed in transfected cells; host or cells: CHO-K1, transient transfection; details: for EDG8-mediated increase in intracellular Ca2+ by lysophospholipid mediators: CHO cells transiently transfected with EDG8 and Gα16 or Gαqi5, lipids at 10, 100, 1000 nM
Protocol: FIG. 3: Effects of S1P, LPA and related lysophospholipid mediators on EDG8-mediated increase in intracellular Ca^2+. CHO-cells were cotransfected with EDG8 and the G protein α subunits Gqi5 (upper panel) and G16 (lower panel) and rises in [Ca^2+]i were recorded with the FLIPR as described in Experimental procedures. The different lipids were applied in concentrations of 10, 100 and 1000 nM, respectively. Data are means of quadruplicate determinations of a representative experiment.
CHO-K1 cells were grown in basal ISCOVE medium supplemented with 10% fetal bovine serum at 37° C. in a humidified 5% CO2 incubator. For transfections, 2×10^5 cells were seeded into 35-mm dishes. About 24 hr later cells were transiently transfected at 50–80% confluency with the indicated receptor and G-protein constructs (1 μg of plasmid DNA each) using the Lipofectamine transfection reagent and the supplied protocol (GIBCO). 18–24 hr after transfection cells were seeded into 96well plates at a density of 50,000 cells per well and cultured for 18–24 additional hr until used in the functional FLIPR assays.
Twenty-four hours after transfection, cells were splitted into 96-well, black-wall microplates (Corning) at a density of 50,000 cells per well. 18–24 hr later, cells were loaded with 95 μl of HBSS containing 20 mM Hepes, 2.5 mM probenecid, 4 μM fluorescent calcium indicator dye Fluo4 (Molecular Probes) and 1% fetal bovine serum for 1 h (37° C., 5% CO2). Cells were washed three times with HBSS containing 20 mM Hepes and 2.5 mM probenecid in a cell washer. After the final wash, the solution was aspirated to a residual volume of 100 μl per 96 well. Lipid ligands were dissolved in DMSO as 2 mM stock solutions (treated with ultrasound when necessary) and diluted at least 1:100 into HBSS containing 20 mM HEPES, 2.5 mM probenecid and 0.4 mg/ml fatty acid free bovine serum albumine. Lipids were aliquoted as 2× solutions into a 96 well plate prior to the assay. The fluorometric imaging plate reader (FLIPR, Molecular Devices) was programmed to transfer 100 μl from each well of the ligand microplate to each well of the cellplate and to record fluorescence during 3 min in 1 second intervals during the first minute and 3 second intervals during the last two minutes. Total fluorescence counts from the 18-s to 37-s time points are used to determine agonist activity. The instrument software normalizes the fluorescent reading to give equivalent initial readings at time zero.

EDG6 receptor = EDG6 receptor (Homo sapiens, UniProt O95977); assay: FLIPR intracellular Ca2+ mobilization in CHO cells transfected with EDG6; type: cell-based; details: absence of any cotransfected G-protein α subunit
Protocol: (§1) FIGS. 2A–F: Mobilization of intracellular Ca^2+ by S1P (10, 100 and 1000 nM) mediated by the EDG1, 3, 5, 6 and 8 receptor in CHO cells, cotransfected with empty vector DNA as a control or the indicated G-protein α subunits.
(§2) A: S1P-induced Ca^2+-response in CHO cells transfected with vector DNA alone or the G protein α subunits Gq, G16 and Gqi5. B-F: S1P-induced Ca^2+-response in CHO cells transfected with the indicated EDG-receptor subtypes. Agonist-mediated changes of intracellular Ca^2+ were measured with the FLIPR using the Ca^2+-sensitive dye FLUO4 as described in Experimental procedures. Fluorescence of transfected cells loaded with FLUO4 was recorded before and after addition of S1P, applied in the indicated concentrations. Data are expressed as means of quadruplicate determinations in a single experiment.
(§3) CHO-K1 cells were grown in basal ISCOVE medium supplemented with 10% fetal bovine serum at 37° C. in a humidified 5% CO2 incubator. For transfections, 2×10^5 cells were seeded into 35-mm dishes. About 24 hr later cells were transiently transfected at 50–80% confluency with the indicated receptor and G-protein constructs (1 μg of plasmid DNA each) using the Lipofectamine transfection reagent and the supplied protocol (GIBCO). […]

CHO cells = assay: FLIPR intracellular Ca2+ mobilization in CHO cells without EDG receptor (vector or G protein alpha subunits only); type: cell-based, chinese hamster
Protocol: as §1, §2, §3

EDG3 receptor = EDG3 receptor (Homo sapiens, UniProt Q99500); assay: FLIPR intracellular Ca2+ mobilization in CHO cells transfected with EDG3; type: cell-based; details: transiently transfected CHO cells; 10, 100, 1000 nM
Protocol: as §1, §2, §3

EDG1 receptor = EDG1 receptor (Homo sapiens, UniProt P21453); assay: FLIPR intracellular Ca2+ mobilization in CHO cells transfected with EDG1; type: cell-based; details: transiently transfected CHO cells; 10, 100, 1000 nM
Protocol: as §1, §2, §3

EDG5 receptor = target: T2, EDG5 receptor (Homo sapiens, UniProt O95136); assay: FLIPR intracellular Ca2+ mobilization in CHO cells transfected with EDG5; type: cell-based; details: transiently transfected CHO cells; 10, 100, 1000 nM
T2 construct: expressed in transfected cells; host or cells: CHO-K1, transient transfection
Protocol: as §1, §2, §3

human EDG8 [2] = target: T1, human EDG8; assay: Effect of inhibitor alone on [Ca2+]i during preincubation, cells cotransfected with human EDG8 and Gαqi5; type: cell-based; design: The 1197 bp PCR product was cloned into the pCDNA3.1(+) mammalian expression vector; expressed in transfected cells; details: 3 minutes, before 1 μM S1P
Protocol: (§4) FIG. 9: Inhibition of S1P mediated intracellular calcium release by suramin and NF023 (8,8′-(carbonylbis(imino-3,1-phenylene))bis-(1,3,5-naphatlenetrisulfonic acid)) in cells transiently cotransfected with human EDG8 and Gαqi5 (A) and rat EDG8 and Gαqi5 (B). […] Cells were then stimulated with 1 μM S1P and in [Ca^2+]i measured with the FLIPR as described in the method section. Peak fluorescence counts were normalized and background responses of Gαqi5-transfected cells were subtracted. S1P-mediated calcium release in the absence of inhibitor was set 100%. Data are means±SE of 4–7 independent experiments.
(§5) Twenty-four hours after transfection, cells were splitted into 96-well, black-wall microplates (Corning) at a density of 50,000 cells per well. […] The fluorometric imaging plate reader (FLIPR, Molecular Devices) was programmed to transfer 100 μl from each well of the ligand microplate to each well of the cellplate and to record fluorescence during 3 min in 1 second intervals during the first minute and 3 second intervals during the last two minutes. Total fluorescence counts from the 18-s to 37-s time points are used to determine agonist activity. The instrument software normalizes the fluorescent reading to give equivalent initial readings at time zero.

rat EDG8 = target: T3, rat EDG8 (Rattus norvegicus, UniProt Q9JKM5); assay: Effect of inhibitor alone on [Ca2+]i during preincubation, cells cotransfected with rat EDG8 and Gαqi5; type: cell-based; details: 3 minutes, before 1 μM S1P
T3 construct: expressed in transfected cells
Protocol: as §4, §5

T1 sequence (Q9H228 whole entry): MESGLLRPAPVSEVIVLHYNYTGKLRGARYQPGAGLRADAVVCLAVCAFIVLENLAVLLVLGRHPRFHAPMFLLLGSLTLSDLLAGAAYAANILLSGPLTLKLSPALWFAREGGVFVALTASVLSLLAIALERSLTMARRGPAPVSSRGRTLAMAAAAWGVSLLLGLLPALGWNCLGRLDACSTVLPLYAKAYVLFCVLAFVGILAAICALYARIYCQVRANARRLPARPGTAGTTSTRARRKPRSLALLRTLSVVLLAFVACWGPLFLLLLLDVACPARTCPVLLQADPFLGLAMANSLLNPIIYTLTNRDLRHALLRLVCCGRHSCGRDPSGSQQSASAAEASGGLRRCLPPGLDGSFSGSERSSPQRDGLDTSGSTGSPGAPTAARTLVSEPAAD
Chain of EDG6 receptor (O95977 whole entry): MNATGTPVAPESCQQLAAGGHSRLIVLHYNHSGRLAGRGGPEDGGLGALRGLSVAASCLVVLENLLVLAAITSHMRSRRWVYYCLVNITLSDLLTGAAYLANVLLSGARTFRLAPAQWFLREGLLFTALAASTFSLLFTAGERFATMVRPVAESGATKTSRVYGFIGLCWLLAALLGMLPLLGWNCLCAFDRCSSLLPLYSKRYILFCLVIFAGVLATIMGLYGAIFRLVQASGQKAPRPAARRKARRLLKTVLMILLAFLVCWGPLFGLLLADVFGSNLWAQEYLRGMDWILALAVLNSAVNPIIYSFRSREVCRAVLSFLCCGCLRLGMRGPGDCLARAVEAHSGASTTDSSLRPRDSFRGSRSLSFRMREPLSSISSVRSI
T2 sequence (O95136 whole entry): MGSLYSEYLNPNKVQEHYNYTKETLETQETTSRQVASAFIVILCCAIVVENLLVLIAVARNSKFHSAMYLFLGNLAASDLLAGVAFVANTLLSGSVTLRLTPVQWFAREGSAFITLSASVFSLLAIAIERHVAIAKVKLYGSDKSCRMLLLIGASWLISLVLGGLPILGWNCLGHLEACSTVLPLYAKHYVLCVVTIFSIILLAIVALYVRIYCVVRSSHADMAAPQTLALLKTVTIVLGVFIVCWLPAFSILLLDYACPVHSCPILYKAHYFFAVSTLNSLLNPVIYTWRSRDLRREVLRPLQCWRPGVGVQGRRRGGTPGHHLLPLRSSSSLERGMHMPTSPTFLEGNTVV
Chain of EDG1 receptor (P21453 whole entry): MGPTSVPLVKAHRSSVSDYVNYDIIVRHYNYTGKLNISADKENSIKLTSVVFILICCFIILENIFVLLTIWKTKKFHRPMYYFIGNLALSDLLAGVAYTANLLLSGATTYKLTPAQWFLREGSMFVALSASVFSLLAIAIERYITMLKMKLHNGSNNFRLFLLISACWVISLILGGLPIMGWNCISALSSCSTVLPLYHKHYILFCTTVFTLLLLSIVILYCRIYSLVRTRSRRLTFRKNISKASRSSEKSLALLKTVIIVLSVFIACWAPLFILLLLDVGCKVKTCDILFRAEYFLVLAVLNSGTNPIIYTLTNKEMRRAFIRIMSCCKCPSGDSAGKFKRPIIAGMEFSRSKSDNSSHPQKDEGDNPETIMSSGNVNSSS
T3 sequence (Q9JKM5 whole entry): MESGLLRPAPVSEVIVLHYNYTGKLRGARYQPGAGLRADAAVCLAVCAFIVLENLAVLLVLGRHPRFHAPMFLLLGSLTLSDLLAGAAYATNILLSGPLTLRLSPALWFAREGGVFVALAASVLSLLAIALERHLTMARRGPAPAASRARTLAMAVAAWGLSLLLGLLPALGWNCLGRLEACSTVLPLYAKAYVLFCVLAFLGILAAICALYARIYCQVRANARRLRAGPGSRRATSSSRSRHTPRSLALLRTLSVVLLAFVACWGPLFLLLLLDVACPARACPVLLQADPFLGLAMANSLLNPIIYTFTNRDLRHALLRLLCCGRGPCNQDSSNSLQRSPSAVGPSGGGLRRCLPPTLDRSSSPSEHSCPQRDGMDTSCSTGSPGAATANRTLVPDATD
Chain of EDG3 receptor (Q99500 whole entry): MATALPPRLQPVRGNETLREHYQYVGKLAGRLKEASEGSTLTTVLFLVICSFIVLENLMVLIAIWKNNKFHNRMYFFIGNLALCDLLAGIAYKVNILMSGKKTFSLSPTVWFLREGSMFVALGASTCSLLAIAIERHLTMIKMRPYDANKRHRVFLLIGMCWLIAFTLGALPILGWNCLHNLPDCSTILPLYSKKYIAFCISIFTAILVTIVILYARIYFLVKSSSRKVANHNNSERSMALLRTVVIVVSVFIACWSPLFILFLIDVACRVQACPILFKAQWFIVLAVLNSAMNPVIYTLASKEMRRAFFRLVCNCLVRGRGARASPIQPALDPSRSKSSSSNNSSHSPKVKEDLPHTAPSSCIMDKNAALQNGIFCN

## CCCCCCCCCCCCC/C=C/[C@@H](O)[C@@H](N)COP(=O)(O)O [S1P, sphingosine 1-phosphate]
Human EDG8 [1]
  EDG8-mediated increase in intracellular Ca2+ by lysophospholipid mediators: most potent activator of EDG8
Human EDG8 [1]; CHO cells, EDG8 cotransfected with Gα16 or Gαqi5, 10, 100 and 1000 nM
  S1P-induced Ca2+ mobilization via EDG8: gained the ability to mobilize Ca^2+
Human EDG8 [1]; CHO cells, EDG8 without cotransfected G protein α subunit, 10, 100 and 1000 nM
  S1P-induced [Ca2+]i release via EDG8: did not release [Ca^2+]i
EDG6 receptor
  S1P-induced [Ca2+]i mobilization via EDG6: failed to detect a significant Ca^2+ increase above basal levels
CHO cells; CHO cells transfected with empty vector DNA, 10, 100, 1000 nM
  S1P-induced rise in intracellular Ca2+: None of the applied S1P concentrations was capable of eliciting significant rises in intracellular Ca^2+
CHO cells; Gqi5- and G16-transfected CHO cells, no EDG receptor
  S1P-induced increase in [Ca2+]i: did not give rise to significant increases in [Ca^2+]i
EDG3 receptor
  S1P-induced [Ca2+]i mobilization via EDG3: mobilize [Ca^2+]i in response to S1P
EDG1 receptor
  S1P-induced [Ca2+]i mobilization via EDG1: mobilize [Ca^2+]i in response to S1P
EDG5 receptor
  S1P-induced [Ca2+]i mobilization via EDG5: mobilize [Ca^2+]i in response to S1P

## CCCCCCCCCCCCC/C=C/[C@@H](O)[C@@H](N)COP(=O)([O-])OCC[N+](C)(C)C [SPC, sphingosylphosphorylcholine]
Human EDG8 [1]
  EDG8-mediated increase in intracellular Ca2+ by lysophospholipid mediators: failed to generate any significant response in concentrations up to 1 μM

## CCCCCCCCCCCCCCC[C@@H](O)[C@@H](N)COP(=O)(O)O [dHS1P, dihydro sphingosine 1-phosphate]
Human EDG8 [1]
  EDG8-mediated increase in intracellular Ca2+ by lysophospholipid mediators: evoked [Ca^2+]i increases in concentrations of 100 and 1000 nM

## Cc1ccc(C(=O)Nc2ccc(S(=O)(=O)O)c3cc(S(=O)(=O)O)cc(S(=O)(=O)O)c23)cc1NC(=O)c1cccc(NC(=O)Nc2cccc(C(=O)Nc3cc(C(=O)Nc4ccc(S(=O)(=O)O)c5cc(S(=O)(=O)O)cc(S(=O)(=O)O)c45)ccc3C)c2)c1 [suramin]
Human EDG8 [2]
  Effect on [Ca2+]i mobilization during preincubation period: did not show any effect
Rat EDG8
  Effect on [Ca2+]i mobilization during preincubation period: did not show any effect

## lysophosphatidic acid [LPA]
Human EDG8 [1]
  EDG8-mediated increase in intracellular Ca2+ by lysophospholipid mediators: evoked [Ca^2+]i increases in concentrations of 100 and 1000 nM

## lysophosphatidylcholine [LPC]
Human EDG8 [1]
  EDG8-mediated increase in intracellular Ca2+ by lysophospholipid mediators: failed to generate any significant response in concentrations up to 1 μM
